{"source": "paper PMC5465257", "about": "“Evaluation of JNJ-54717793 a Novel Brain Penetrant Selective Orexin 1 Receptor Antagonist in Two Rat Models of Panic Attack Provocation” (Frontiers in Pharmacology, 2017)", "key": {"[1]": {"molecular_target": "T1, OX1R in rat brain (tenia tecta) (Rattus norvegicus, UniProt P56718)", "T1 construct": "Twenty micron thick tissue sections at the level of the tenia tecta were prepared for autoradiography; from tissue; host or cells: brain sections (tenia tecta) of male Sprague-Dawley rats", "T1 sequence (P56718 1-416)": "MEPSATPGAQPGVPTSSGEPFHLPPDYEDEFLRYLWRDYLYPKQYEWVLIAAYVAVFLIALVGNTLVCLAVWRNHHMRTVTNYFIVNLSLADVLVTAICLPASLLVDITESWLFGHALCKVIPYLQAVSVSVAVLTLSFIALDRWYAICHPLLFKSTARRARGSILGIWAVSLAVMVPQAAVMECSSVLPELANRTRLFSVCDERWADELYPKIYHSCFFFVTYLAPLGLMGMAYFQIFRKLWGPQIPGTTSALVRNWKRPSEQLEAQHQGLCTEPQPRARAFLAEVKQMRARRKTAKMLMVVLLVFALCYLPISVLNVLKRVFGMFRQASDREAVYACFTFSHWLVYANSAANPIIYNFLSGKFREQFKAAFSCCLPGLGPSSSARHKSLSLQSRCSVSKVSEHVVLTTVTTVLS", "assay": "Ex vivo OX1R receptor occupancy autoradiography in rat brain (tenia tecta), with plasma bioanalysis", "procedure": "(§1) Experiments were performed as previously described ([Dugovic et al., 2009]) in male Sprague-Dawley rats (300–400 g, Charles River Laboratories, San Diego, CA, United States). The animals were euthanized using carbon dioxide and decapitated at different time points after drug administration (n = 3 per time point or dose regimen). Brains were rapidly frozen on powdered dry ice and stored at -80°C before sectioning. Plasma samples were also collected for bioanalysis (LC–MS/MS). Twenty micron thick tissue sections at the level of the tenia tecta were prepared for autoradiography. OX1R radioligand binding autoradiography was determined at room temperature with 5 nM [^3H]SB-674042. Sections were incubated for 10 min to minimize dissociation. Non-specific binding was determined in the presence of 10 μM SB-674042. Ex vivo receptor labeling was expressed as the percentage of receptor labeling in corresponding brain areas (i.e., tenia tecta) of vehicle-treated animals. The percentage of receptor occupancy was plotted against time or dosage using GraphPad Prism (GraphPad Software, San Diego, CA, United States). Percentage of receptor occupancy was also plotted against drug plasma or brain concentration. Pharmacokinetic parameters were analyzed using a non-compartmental model using the software package WinNonlin Version 4.0.1 (Pharsight, Palo Alto, CA, United States).\n(§2) In vivo occupancy of the OX1R was assessed by ex vivo receptor binding autoradiography of [^3H]SB-674042 in rat brain tissue sections at the level of the tenia tecta. Time-dependency and dose-dependency were assessed after oral dosing (Figure 2)."}, "[2]": {"assay": "Ex vivo OX1R receptor occupancy autoradiography in rat brain (tenia tecta), with plasma bioanalysis", "conditions": "male, Sprague-Dawley, plasma", "procedure": "as §1, §2"}, "rat OX1R": {"molecular_target": "T2, rat OX1R (Rattus norvegicus, UniProt P56718)", "T2 sequence (P56718 1-416)": "T1 sequence (P56718 1-416)", "assay": "Rat OX1R competitive radioligand binding ([3H]SB-674042)", "set-up": "expressed in transfected cells; host or cells: clonal HEK-293 cells", "procedure": "Human or rat OX1R binding was measured in competitive radioligand binding assays using [^3H]SB-674042 (1-(5-(2-fluoro-phenyl)-2-methyl-thiazol-4-yl)-1-((S)-2-(5-phenyl-(1,3,4)oxadiazol-2-ylmethyl)-pyrrolidin-l-yl)-methanone) as a tracer (4 nM, specific activity 35 Ci/mmol) as previously described ([Langmead et al., 2004]). Cell membranes were prepared from clonal CHO K1 cells transfected with the human OX1R or clonal HEK-293 cells transfected with the rat OX1R. Dilutions of test compounds were made in Dulbecco’s PBS from 10 mM stocks dissolved in dimethyl sulfoxide. After a 60 min incubation at room temperature, binding reactions were filtered. The membranes were counted in a scintillation counter. Non-specific binding was determined in the presence of 10 μM almorexant. Affinities of compounds for the human OX2R were measured by competitive radioligand binding using tritiated N-ethyl-2-[(6-methoxy-pyridin-3-yl)-(toluene-2-sulfonyl)-amino]-N-pyridin-3-ylmethyl-acetamide (EMPA) (2 nM, specific activity 27 Ci/mmol) ([Malherbe et al., 2009]). Cell membranes were prepared from a stable pool of HEK-293 cells transfected with the human OX2R. Non-specific binding was determined with 10 μM almorexant.\nThe Ki of the test compounds was calculated based on non-linear regression (one site competition) using Graphpad Prism. […]"}}, "note": "Read-outs that look alike come from different tables or passages of the source.", "data": [{"smiles": "O=C(c1cccc(F)c1-c1ncccn1)N1[C@@H]2CC[C@H]1[C@H](Nc1cnc(C(F)(F)F)cn1)C2", "note": "[JNJ-54717793, (1S,2R,4R)-7-([(3-fluoro-2-pyrimidin-2-ylphenyl)carbonyl]-N-[5-(trifluoromethyl)pyrazin-2-yl]-7-azabicyclo[2.2.1]heptan-2-amine)]", "values": [{"measurement": "level of OX1R occupancy", "setting": "[1]; 30 mg/kg oral, after the first 6 h", "result": "negligible"}, {"measurement": "receptor occupancy at 30 mg/kg", "setting": "[1]; 30 mg/kg oral, first 6 h, read-out: level of OX1R occupancy", "result": "> 58", "unit": "%"}, {"measurement": "receptor occupancy at 30 mg/kg", "setting": "[1]; 30 mg/kg oral, observed at 15 min, read-out: maximal OX1R occupancy", "result": "87 ± 3", "unit": "%"}, {"measurement": "ED50", "setting": "[1]; oral, 60 min after treatment", "result": 1.3, "unit": "mg/kg"}, {"measurement": "receptor occupancy at 3 mg/kg", "setting": "[1]; oral, reached at 3 mg/kg, 60 min after treatment, read-out: plateau for maximal OX1R occupancy", "result": "80 to 90", "unit": "%"}, {"measurement": "concentration at 60 min", "setting": "[2]; 1.3 mg/kg, oral, 95% confidence interval 26 to 277 ng/ml, read-out: plasma exposure corresponding to ED50", "result": 84, "unit": "ng/mL"}, {"measurement": "concentration at 60 min", "setting": "[2]; 3 mg/kg oral, read-out: plasma concentration at plateau of occupancy", "result": "~311", "unit": "ng/mL"}, {"measurement": "concentration at 15 min", "setting": "[2]; 30 mg/kg oral, 15 min, read-out: plasma concentration at maximal OX1R occupancy", "result": "3730 ± 440", "unit": "ng/mL"}, {"measurement": "Ki", "setting": "rat OX1R", "result": 14.5, "unit": "nM"}]}]}
